Data from patent US20260259169A1, “BETA-LACTAMASE SUBSTRATE COMPOUNDS AND ELECTROCHEMICAL DETECTION METHODS USING THEM” (priority 2023, published 2026).

Assay: NMR stability study in relation to a 22 mM succinate buffer reference
Type: physicochemical
Protocol: The stability of the beta-lactamase substrate compounds over time at different temperatures was tested the reference HMRZ-86 of example 1 (at 1.2 mM) and the beta-lactamase substrate compound with R being 2-nitro-4-cyano of Example 1 (at 2.4 mM).
The stability of both beta-lactamase substrate compounds was also tested in relation to a 22 mM succinate buffer reference. […] Contrary to the dimethylformamide (DMF) reference, the degradation in relation to the succinate buffer was similar for both substrate compounds, with the first degradation starting after 2 weeks at both temperatures.

## CC(C)(ON=C(C(=O)N[C@@H]1C(=O)N2C(C(=O)O)=C(C=Cc3ccc([N+](=O)[O-])cc3[N+](=O)[O-])CS[C@H]12)c1csc(N)n1)C(=O)O.O=C(O)C(F)(F)F [HMRZ-86, reference compound]
4° C.
  time at which the first degradation starts: 2 weeks
20° C.
  time at which the first degradation starts: 2 weeks
